Common to all, as to assay type: binding
The target in experiment [1] is T1, KRAS G12S (Homo sapiens, UniProt P01116, G12S).
T1 construct: made in house; host or cells: E. coli, e.g. BL21 (DE3)
Description: HTRF assay of K-Ras G12S interaction with SOS1 (PPI-HTRF). Particulars: 5 nM KRAS G12S, read-out: PPI-HTRF-5 nM KRAS G12S. The source says: (§1) This assay can be also used to assess a selective inhibition or reduction of signaling output of a mutant Ras protein relative to a wildtype, or relative to a different mutant Ras protein. For example, the equilibrium interaction of wildtype Kras or K-Ras mutant (e.g., wildtype or a mutant thereof including those mentioned in Example 4) with SOS1 (e.g., hSOS1) can be assessed as a proxy or an indication for a subject compound's ability to bind and inhibit Ras protein. HTRF assay detects from (i) a fluorescence resonance energy transfer (FRET) donor (e.g., antiGST-Europium) that is bound to GST-tagged K-Ras mutant to (ii) a FRET acceptor (e.g., anti-6His-XL665) bound to a His-tagged hSOS1.
(§2) The assay buffer can contain ˜5 mM HEPES pH 7.4, ˜150 mM NaCl, ˜1 mM DTT, 0.05% BSA and 0.0025% (v/v) Igepal. A Ras working solution is prepared in an assay buffer containing typically a suitable amount of the protein construct (e.g., GST-tagged K-Ras mutant) and the FRET donor (e.g., antiGST-Eu(K) from Cisbio, France). A SOS1 working solution is prepared in an assay buffer containing suitable amount of the protein construct (e.g., His-hSOS1) and the FRET acceptor (e.g., anti-6His-XL665 from Cisbio, France). A suitable amount of the protein construct will depend on the range of activity or range of IC50 values being detected or under investigation. For detecting IC50 within a range of 500 nM, the protein constructs of the same range of molarity can be utilized. […] A fixed volume of DMSO with or without test compound is transferred into a 384-well plate. Ras working solution is added to all wells of the test plate. SOS1 working solution is added to all wells except for those that are subsequently filled the inhibitor control solution. Upon incubation for about 10 minutes or longer, the fluorescence is measured with a M1000Pro plate reader (Tecan) using HTRF detection (excitation 337 nm, emission 1: 620 nm, emission 2: 665 nm). Compounds are tested in duplicates at different concentrations (for example, 10 μM, 2.5 μM, 0.63 μM, 0.16 μM, 0.04 μM, 0.01 μM test compound). The ratiometric data (i.e., emission 2 divided by emission 1) is used to calculate IC50 values against Ras using GraphPad Prism (GraphPad software). Following this general procedure, samples were tested with or without a subject compound disclosed herein including compounds exemplified in Table 1 to assess their abilities to inhibit a mutant K-Ras relative to another mutant K-Ras or wildtype K-Ras. Signaling output measured in terms of IC50 values can be obtained, a ratio of IC50 against one mutant relative to another mutant can be calculated. For instance, a selective reduction of K-Ras G12D signaling output can be evidenced by a ratio greater than one. In particular, a selective reduction of K-Ras G12D signaling relative to K-Ras WT signaling is evidenced as the ratio of IC50 (against K-Ras WT) to IC50 (against K-Ras G12D) is greater than 1.

Experiment [2] has as its target T2, KRAS G12D (Homo sapiens, UniProt P01116, G12D).
T2 construct: made in house; host or cells: E. coli, e.g. BL21 (DE3)
The experiment in a line: HTRF assay of K-Ras G12D interaction with SOS1 (PPI-HTRF). Particulars: HTRF, 5 nM KRAS G12D; read-out: PPI-HTRF-5 nM KRAS G12D.
Description: as §1, §2

The target in experiment [3] is T3, KRAS WT (Homo sapiens, UniProt P01116).
T3 construct: made in house; host or cells: E. coli, e.g. BL21 (DE3)
The experiment in a line: HTRF assay of wildtype K-Ras interaction with SOS1 (PPI-HTRF). The note with it: HTRF, 5 nM KRAS WT; read-out: PPI-HTRF-5 nM KRAS WT.
Description: as §1, §2

SMILES strings stand for the structures.

T2 sequence (P01116 1-188 isoform P01116-2 G12D): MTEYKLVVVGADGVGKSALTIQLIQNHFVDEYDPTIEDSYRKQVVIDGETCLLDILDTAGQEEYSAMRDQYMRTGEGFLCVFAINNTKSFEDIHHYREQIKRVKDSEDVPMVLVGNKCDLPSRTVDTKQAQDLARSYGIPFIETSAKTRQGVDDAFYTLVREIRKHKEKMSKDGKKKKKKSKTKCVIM
T3 sequence (P01116 1-188 isoform P01116-2): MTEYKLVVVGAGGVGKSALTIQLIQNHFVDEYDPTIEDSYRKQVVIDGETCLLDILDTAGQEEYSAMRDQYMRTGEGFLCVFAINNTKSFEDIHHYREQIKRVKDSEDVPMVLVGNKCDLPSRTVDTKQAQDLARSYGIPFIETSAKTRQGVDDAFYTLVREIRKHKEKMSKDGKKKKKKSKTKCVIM
T1 sequence (P01116 1-188 isoform P01116-2 G12S): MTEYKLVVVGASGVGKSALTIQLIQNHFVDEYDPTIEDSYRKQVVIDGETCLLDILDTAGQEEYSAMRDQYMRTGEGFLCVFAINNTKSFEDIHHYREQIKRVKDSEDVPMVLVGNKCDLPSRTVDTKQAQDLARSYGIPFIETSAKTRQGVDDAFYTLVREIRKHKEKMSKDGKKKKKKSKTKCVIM

`C[C@H]1N(c2nc(OC[C@@]34CCCN3C[C@H](F)C4)nc3c(F)c(-c4ccc(F)c5sc(N)c(C#N)c45)c(Cl)cc23)CC[C@@]12CCN2C(=O)n1cnc(C(F)F)n1` [Compound 325, 2-amino-4-(6-chloro-4-((4R,5R)-1-(3-(difluoromethyl)-1H-1,2,4-triazole-1-carbonyl)-5-methyl-1,6-diazaspiro[3.4]octan-6-yl)-8-fluoro-2-(((2R,7aS)-2-fluorotetrahydro-1H-pyrrolizin-7a(5H)-yl)methoxy)quinazolin-7-yl)-7-fluorobenzo[b]thiophene-3-carbonitrile]: the IC50 in experiment [1], in experiment [2] and in experiment [3] was under 5 µM throughout.
As for `N#Cc1c(N)sc2c(F)ccc(-c3c(Cl)cc4c(N5CCC6(C5)N(C(=O)n5cncn5)CC6(F)F)nc(OC[C@@]56CCCN5C[C@H](F)C6)nc4c3F)c12` (stereo partly drawn) [Compound 283, 2-amino-4-(6-chloro-4-(3,3-difluoro-1-(1H-1,2,4-triazole-1-carbonyl)-1,6-diazaspiro[3.4]octan-6-yl)-8-fluoro-2-(((2R,7aS)-2-fluorotetrahydro-1H-pyrrolizin-7a(5H)-yl)methoxy)quinazolin-7-yl)-7-fluorobenzo[b]thiophene-3-carbonitrile], the IC50 in experiment [1], in experiment [2] and in experiment [3] was under 5 µM throughout.
As for `Cc1ncn(C(=O)N2CC[C@@]23CCN(c2nc(OC[C@@]45CCCN4C[C@H](F)C5)nc4c(F)c(-c5ccc(F)c6sc(N)c(C#N)c56)c(Cl)cc24)C3)n1` (atropisomer, axis not shown; (aS)) [Compound 338, (R)-2-amino-4-(6-chloro-8-fluoro-2-(((2R,7aS)-2-fluorotetrahydro-1H-pyrrolizin-7a(5H)-yl)methoxy)-4-((R)-1-(3-methyl-1H-1,2,4-triazole-1-carbonyl)-1,6-diazaspiro[3.4]octan-6-yl)quinazolin-7-yl)-7-fluorobenzo[b]thiophene-3-carbonitrile], the IC50 in experiment [1], in experiment [2] and in experiment [3] was under 5 µM in each case.
For `N#Cc1c(N)sc2c(F)ccc(-c3c(Cl)cc4c(N5CCC6(CCCCN6C(=O)n6cncn6)C5)nc(OC[C@@]56CCCN5C[C@H](F)C6)nc4c3F)c12` (stereo partly drawn) [Compound 216, 4-(4-(6-(1H-1,2,4-triazole-1-carbonyl)-2,6-diazaspiro[4.5]decan-2-yl)-6-chloro-8-fluoro-2-(((2R,7aS)-2-fluorotetrahydro-1H-pyrrolizin-7a(5H)-yl)methoxy)quinazolin-7-yl)-2-amino-7-fluorobenzo[b]thiophene-3-carbonitrile], the IC50 in experiment [1], in experiment [2] and in experiment [3] was under 5 µM in each case.
In the case of `N#Cc1c(N)sc2c(F)ccc(-c3c(Cl)cc4c(N5CC[C@@]6(CCN6C(=O)n6cncn6)C5)nc(OC[C@@]56CCCN5C[C@H](F)C6)nc4c3F)c12` (single isomer, unassigned) [Compound 234], the IC50 in experiment [1], in experiment [2] and in experiment [3] was under 5 µM throughout.
`C[C@H](Oc1nc(N2CCCC3(CCN3C(=O)[C@@H]3C[C@H]3C#N)C2)c2cc(Cl)c(-c3ccc(F)c4sc(N)c(C#N)c34)c(F)c2n1)[C@@H]1CCCN1C` (stereo partly drawn) [Compound 235, 2-amino-4-(6-chloro-4-(1-((1R,2R)-2-cyanocyclopropane-1-carbonyl)-1,6-diazaspiro[3.5]nonan-6-yl)-8-fluoro-2-((S)-1-((S)-1-methylpyrrolidin-2-yl)ethoxy)quinazolin-7-yl)-7-fluorobenzo[b]thiophene-3-carbonitrile]: the IC50 in experiment [1], in experiment [2] and in experiment [3] was under 5 µM in each case.
Take `N#Cc1c(N)sc2c(F)ccc(-c3c(Cl)cc4c(N5CCC6(CCN6C(=O)n6ccnn6)C5)nc(OC[C@@]56CCCN5C[C@H](F)C6)nc4c3F)c12` (stereo partly drawn) [Compound 248, 4-(4-(1-(1H-1,2,3-triazole-1-carbonyl)-1,6-diazaspiro[3.4]octan-6-yl)-6-chloro-8-fluoro-2-(((2R,7aS)-2-fluorotetrahydro-1H-pyrrolizin-7a(5H)-yl)methoxy)quinazolin-7-yl)-2-amino-7-fluorobenzo[b]thiophene-3-carbonitrile]: the IC50 in experiment [1], in experiment [2] and in experiment [3] was under 5 µM throughout.
On to `C[C@H](Oc1nc(N2CCC3(CCN3C(=O)C3CC3(F)F)C2)c2cc(Cl)c(-c3ccc(F)c4sc(N)c(C#N)c34)c(F)c2n1)[C@@H]1CCCN1C` (stereo partly drawn) [Compound 280, 2-amino-4-(6-chloro-4-(1-(2,2-difluorocyclopropane-1-carbonyl)-1,6-diazaspiro[3.4]octan-6-yl)-8-fluoro-2-((S)-1-((S)-1-methylpyrrolidin-2-yl)ethoxy)quinazolin-7-yl)-7-fluorobenzo[b]thiophene-3-carbonitrile], for which the IC50 in experiment [1], in experiment [2] and in experiment [3] was under 5 µM in each case.
As to `Nc1nc2c(-c3c(Cl)cc4c(N5CCCC6(CC5)CCN6C=O)nc(OC[C@@]56CCCN5C[C@H](F)C6)nc4c3F)ccc(F)c2s1` (stereo partly drawn) [Compound 233, 7-(7-(2-amino-7-fluorobenzo[d]thiazol-4-yl)-6-chloro-8-fluoro-2-(((2R,7aS)-2-fluorotetrahydro-1H-pyrrolizin-7a(5H)-yl)methoxy)quinazolin-4-yl)-1,7-diazaspiro[3.6]decane-1-carbaldehyde], the IC50 in experiment [1], in experiment [2] and in experiment [3] was under 5 µM each time.
Regarding `Nc1nc2c(-c3ccc4c(N5CC6(CNCCN6)C5)nc(OC[C@@]56CCCN5C[C@H](F)C6)nc4c3F)ccc(F)c2s1` [Compound 253, 7-fluoro-4-(8-fluoro-2-(((2R,7aS)-2-fluorotetrahydro-1H-pyrrolizin-7a(5H)-yl)methoxy)-4-(2,5,8-triazaspiro[3.5]nonan-2-yl)quinazolin-7-yl)benzo[d]thiazol-2-amine], the IC50 in experiment [1] was over 5 µM; in experiment [2] it was over 5 µM; in experiment [3], under 5 µM.
`C[C@@H]1C[C@@]2(CCN2)CN1c1nc(OC[C@@]23CCCN2C[C@H](F)C3)nc2c(F)c(-c3ccc(F)c4sc(N)c(C#N)c34)c(Cl)cc12` [Compound 335, 2-amino-4-(6-chloro-8-fluoro-2-(((2R,7aS)-2-fluorotetrahydro-1H-pyrrolizin-7a(5H)-yl)methoxy)-4-((4S,7R)-7-methyl-1,6-diazaspiro[3.4]octan-6-yl)quinazolin-7-yl)-7-fluorobenzo[b]thiophene-3-carbonitrile]: the IC50 in experiment [1], in experiment [2] and in experiment [3] was under 5 µM throughout.
For the compound `N#Cc1c(N)sc2c(F)ccc(-c3c(Cl)cc4c(N5CCC6(COCCN6C(=O)C6CC6(F)F)C5)nc(OC[C@@]56CCCN5C[C@H](F)C6)nc4c3F)c12` (stereo partly drawn) [Compound 258, 2-amino-4-(6-chloro-4-(6-(2,2-difluorocyclopropane-1-carbonyl)-9-oxa-2,6-diazaspiro[4.5]decan-2-yl)-8-fluoro-2-(((2R,7aS)-2-fluorotetrahydro-1H-pyrrolizin-7a(5H)-yl)methoxy)quinazolin-7-yl)-7-fluorobenzo[b]thiophene-3-carbonitrile], the IC50 in experiment [1], in experiment [2] and in experiment [3] was under 5 µM throughout.

The record behind these values is patent US20240116951A1, “HETEROCYCLIC COMPOUNDS AND USES THEREOF” (Kumquat Biosciences Inc., priority 2022, published 2024).
